Test results reported in patent US20040063906A1, “Pna analogues” (priority 2000, published 2004).
{LysNH2} = C-terminal lysine amide

Legend:
[1] = tested on: complementary RNA oligomers; experiment: Melting temperature (Tm) with complementary RNA oligomer, Table 1; format: binding; settings: medium salt buffer: 100 mM NaCl, 10 mM phosphate, 0.1 mM EDTA, pH 7.0; heating rate 1 K/min; UV 254 nm
Procedure: (§1) Binding affinity. The binding affinity towards complementary RNA and DNA oligomers was measured by obtaining the Tm-curves (Table 1). As expected, incorporation of both the pyrrolidinone and the pyrrolidine analogue into the PNA strand results in destabilization against DNA and RNA compared to unmodified PNA (entry 1 vs. 2 and 3).

[2] = tested on: complementary DNA oligomers; experiment: Melting temperature (Tm) with complementary DNA oligomer, Table 1; format: binding; settings: medium salt buffer: 100 mM NaCl, 10 mM phosphate, 0.1 mM EDTA, pH 7.0; heating rate 1 K/min; UV 254 nm
Procedure: as §1

poly A = experiment: Thermal denaturation (Tm) with poly A; format: binding; settings: for Melting temperature (Tm), Poly A: measured from 10 to 90 °C, medium salt buffer, pH 7.0, 0.5 K/min; for Melting temperature (Tm), Poly A, measured from 90 to 10 °C: value in parentheses
From the text: (§2) Binding. The binding of PNA 1164 and PNA 2121 to poly dA and poly A was studied by thermal denaturation (Tm, Table 4). Also listed are the values given by Hickman et. al. (29) The thermal stability results presented in Table 4 clearly indicate that a T5-PNA-oligomer having (2R, 4S)-pyrrolidine backbone (PNA 2121) forms stronger complexes with both poly dA and poly A as compared to the (2R, 4R)-pyrrolidine isomer (entry 3) and also compared to the parent aminoethylglycine PNA (PNA 1164, entry 1). These complexes are ascribed to triplexes and further studies on (pyrimidine-purine mixed sequences) pyrrolidine PNAs are required to establish whether the present results can be extended to duplex structures and are generally valid. Such studies are now in progress.

poly dA = experiment: Thermal denaturation (Tm) with poly dA; format: binding; settings: for Melting temperature (Tm), Poly dA: measured from 10 to 90 °C, medium salt buffer, pH 7.0, 0.5 K/min; for Melting temperature (Tm), Poly dA, measured from 90 to 10 °C: value in parentheses
From the text: as §2

[3] = tested on: RNA antiparallel: 5′-AGA GUA UGA GUA-3′; experiment: Thermal stability (Tm) of complex with antiparallel RNA; format: binding; settings: medium salt buffer, pH 7.0
Procedure: (§3) The binding properties of pyr-PNA oligomer consisting of 10 monomers of the following sequence: H-CTC ATA CTC T-Lys-NH2 were investigated by measuring the thermal stability of the complexes formed with sequence complementary DNA and RNA, respectively, as compared to the stability for the corresponding aeg-PNA oligomer.
(§4) The stability expressed as the melting temperature (Tm), defined as the temperature at which 50% of the complexes have been dissociated, was determined as described by Arghya Ray et al (32).
(§5) Measured in medium salt buffer: 100 mM NaCl, 10 mM Na-phosphate, 0.1 mM EDTA, pH=7.0.

[4] = tested on: DNA parallel: 5′-dATG AGT ATG AGA-3′; experiment: Thermal stability (Tm) of complex with parallel DNA; format: binding; settings: medium salt buffer, pH 7.0
Procedure: as §3, §4, §5

[5] = tested on: DNA antiparallel: 5′-dAGA GTA TGA GTA-3′; experiment: Thermal stability (Tm) of complex with antiparallel DNA; format: binding; settings: pH 7.0; for Tm, DNA antiparallel, down: medium salt buffer
Procedure: as §3, §4, §5

5′-r(U)10 [6] = settings: earlier work (17); cited from earlier work
5′-r(U)10 [7] = experiment: Melting temperature (Tm) with 5′-r(U)10; format: binding; settings: for Melting temperature (Tm), 5′-r(U)10 / Melting temperature (Tm), 5′-r(U)10, cooling curve: Table 2, medium salt buffer, pH 7.0; for Melting temperature (Tm), 5′-r(U)10: heating curve, 1 K/min; for Melting temperature (Tm), 5′-r(U)10, cooling curve: value in parentheses = cooling curve
5′-d(T)10 = experiment: Melting temperature (Tm) with 5′-d(T)10; format: binding; settings: for Melting temperature (Tm), 5′-d(T)10 / Melting temperature (Tm), 5′-d(T)10, cooling curve: Table 2; for Melting temperature (Tm), 5′-d(T)10 / Melting temperature (Tm), X = T: heating curve; for Melting temperature (Tm), 5′-d(T)10 / Melting temperature (Tm), 5′-d(T)10, cooling curve / Melting temperature (Tm), X = T: medium salt buffer, pH 7.0; for Melting temperature (Tm), 5′-d(T)10: 1 K/min; for Melting temperature (Tm), 5′-d(T)10, cooling curve / Melting temperature (Tm), X = T, cooling curve: value in parentheses = cooling curve; for Melting temperature (Tm), X = T / Melting temperature (Tm), X = T, cooling curve: Table 3, DNA target 5′-d(TTT-TXT-TTT-T)-3′
[8] = tested on: DNA target 5′-d(TTT-TXT-TTT-T)-3′, X = C; experiment: Melting temperature (Tm) with mismatch DNA target, X = C; format: binding; settings: Table 3; for Melting temperature (Tm), X = C: heating curve, medium salt buffer, pH 7.0; for Melting temperature (Tm), X = C, cooling curve: value in parentheses = cooling curve
From the text: (§6) The complex between PNA 2110 and DNA was further evaluated.

[9] = tested on: DNA target 5′-d(TTT-TXT-TTT-T)-3′, X = A; experiment: Melting temperature (Tm) with mismatch DNA target, X = A; format: binding; settings: Table 3
From the text: as §6

[10] = tested on: DNA target 5′-d(TTT-TXT-TTT-T)-3′, X = G; experiment: Melting temperature (Tm) with mismatch DNA target, X = G; format: binding; settings: Table 3; for Melting temperature (Tm), X = G: heating curve, medium salt buffer, pH 7.0; for Melting temperature (Tm), X = G, cooling curve: value in parentheses = cooling curve
From the text: as §6

[11] = as opposed to the parent PNA 186
[12] = compared with PNA 186 (Table 2, entry 1 and 3)
[13] = melting curves at pH 9 (not shown)

H-TAC-TCA#-TAC-TCT-LysNH2 [PNA 2104]
Melting temperature (Tm), RNA [1]: 44.5 °C
Melting temperature (Tm), DNA [2]: 28.5 °C

H-(T)5-LysNH2 [PNA 1164, reference compound]
Melting temperature (Tm), Poly A (poly A): 64.0 °C
Melting temperature (Tm), Poly A, measured from 90 to 10 °C (poly A): 58.5 °C
Melting temperature (Tm), Poly dA (poly dA): 53.0 °C
Melting temperature (Tm), Poly dA, measured from 90 to 10 °C (poly dA): 45.5 °C

H-CTC ATA CTC T-Lys-NH2 [PNA 2232] (CTCATACTCT; all peptide nucleic acid (PNA), 3' {LysNH2}; further chemistry not fully specified) [pyr PNA oligomer of 10 monomers]
Tm, RNA antiparallel, down [3]: (41.0°) °C
Tm, DNA parallel, down [4]: (61.5°) °C
Tm, DNA antiparallel, down [5]: (58.0°) °C

H-TAC-TCA-TAC-TCT-LysNH2 (TACTCATACTCT; all peptide nucleic acid (PNA), 3' {LysNH2}) [PNA 2005, unmodified PNA dodecamer]
Melting temperature (Tm), RNA [1]: 59.5 °C
Melting temperature (Tm), DNA [2]: 49.5 °C

H-(A*)10-LysNH2 [PNA 2020, reference compound]
Tm depression per modification as compared to unmodified PNA against r(U)10 (5′-r(U)10 [6]): 1 °C
Melting temperature (Tm), 5′-r(U)10 (5′-r(U)10 [7]): 25.5 °C

H-(A#)10-LysNH2 [PNA 2110]
Melting temperature (Tm), 5′-d(T)10 (5′-d(T)10): 79.0 °C
Melting temperature (Tm), 5′-d(T)10, cooling curve (5′-d(T)10): 41.0 °C
Melting temperature (Tm), X = T (5′-d(T)10): 79.0 °C
Melting temperature (Tm), X = T, cooling curve (5′-d(T)10): (41.0) °C
Hysteresis of melting curves against DNA (5′-d(T)10; [11]): significant hysteresis was detected
ΔTm/mod towards DNA (5′-d(T)10; [12]): +2.5 °C
Recognition of 5′-d(T)10 (sequence specificity) (5′-d(T)10; from mismatch Tm values of Table 3): sequence specific
Lowering of Tm at pH 9 instead of pH 7, against DNA (5′-d(T)10; [13]): about 3.5 °C
Melting temperature (Tm), X = C [8]: 71.0 °C
Melting temperature (Tm), X = C, cooling curve [8]: 36.0 °C
Melting temperature (Tm), X = A ([9]; heating curve, medium salt buffer, pH 7.0): 67.5 °C
Melting temperature (Tm), X = A, cooling curve ([9]; value in parentheses = cooling curve): 35.5 °C
Melting temperature (Tm), X = G [10]: 68.5 °C
Melting temperature (Tm), X = G, cooling curve [10]: 37.0 °C
Melting temperature (Tm), 5′-r(U)10 (5′-r(U)10 [7]): 60.0 °C
Melting temperature (Tm), 5′-r(U)10, cooling curve (5′-r(U)10 [7]): 45.5 °C
Hysteresis of melting curves against RNA (5′-r(U)10 [7]; [11]): significant hysteresis was detected
ΔTm/mod towards RNA (5′-r(U)10 [7]; [12]): +2.5 °C
Lowering of Tm at pH 9 instead of pH 7, against RNA (5′-r(U)10 [7]; [13]): ~1.5 °C

H-(T#)5-LysNH2 [PNA 2121]
Melting temperature (Tm), Poly A (poly A): 79.0 °C
Melting temperature (Tm), Poly A, measured from 90 to 10 °C (poly A): 51.5 °C
Melting temperature (Tm), Poly dA (poly dA): 78.5 °C
Melting temperature (Tm), Poly dA, measured from 90 to 10 °C (poly dA): 44.0 °C

H-CTC ATA CTC T-Lys-NH2 [PNA 2244] (CTCATACTCT; all peptide nucleic acid (PNA), 3' {LysNH2}) [aeg PNA oligomer of 10 monomers, reference compound]
Tm, DNA parallel, down [4]: (43.5°) °C
Tm, DNA parallel, up [4]: 44.0° °C
Tm, DNA antiparallel, down [5]: (43.0°) °C
Tm, DNA antiparallel, up ([5]; medium salt buffer: 100 mM NaCl, 10 mM Na-phosphate, 0.1 mM EDTA): 45.0° °C

H-TAC-TCA*-TAC-TCT-LysNH2 (TACTCATACTCT; chemistry not fully specified) [PNA 2075, PNA dodecamer with one A* = (3S, 5R) pyrrolidone PNA monomer]
Melting temperature (Tm), RNA [1]: 53.8 °C
Melting temperature (Tm), DNA [2]: 41.0 °C

H-Gly-(A)10-NH2 [PNA 186, reference compound]
Melting temperature (Tm), 5′-d(T)10 (5′-d(T)10): 55.5 (55.5) °C
Melting temperature (Tm), 5′-d(T)10, cooling curve (5′-d(T)10): 55.5 (55.5) °C
Melting temperature (Tm), X = T (5′-d(T)10): 55.5 °C
Melting temperature (Tm), X = T, cooling curve (5′-d(T)10): (55.5) °C
Melting temperature (Tm), X = C [8]: 36.5 (36.5) °C
Melting temperature (Tm), X = C, cooling curve [8]: 36.5 (36.5) °C
Melting temperature (Tm), X = G [10]: 40.5 (40.5) °C
Melting temperature (Tm), X = G, cooling curve [10]: 40.5 (40.5) °C
Melting temperature (Tm), 5′-r(U)10 (5′-r(U)10 [7]): 35.5 (35.5) °C
Melting temperature (Tm), 5′-r(U)10, cooling curve (5′-r(U)10 [7]): 35.5 (35.5) °C
